Results from ChEMBL document CHEMBL1154825, “Schweinfurthins I and J from Macaranga schweinfurthii” (2010).

How the values were obtained:
Type in all cases: functional
BT-549 = assay: Growth inhibition of human BT549 cells
CAKI-1 = assay: Growth inhibition of human Caki1 cells
RPMI-8226 = assay: Growth inhibition of human RPMI8226 cells
HCT-116 = assay: Growth inhibition of human HCT116 cells
A498 = assay: Growth inhibition of human A498 cells
CCRF-CEM = assay: Growth inhibition of human CCRF-CEM cells
OVCAR-5 = assay: Growth inhibition of human OVCAR5 cells
HCC 2998 = assay: Growth inhibition of human HCC2998 cells
HCT-15 = assay: Growth inhibition of human HCT15 cells
DU-145 = assay: Growth inhibition of human DU145 cells
NCI-H226 = assay: Growth inhibition of human NCI-H226 cells
[1] = Growth inhibition of human Hs 578T cells
RXF 393 = assay: Growth inhibition of human […] cells
SW-620 = assay: Growth inhibition of human SW620 cells
HT-29 = assay: Growth inhibition of human HT-29 cells
OVCAR-8 = assay: Growth inhibition of human OVCAR8 cells
Malme-3M = assay: Growth inhibition of human MALME-3M cells
SN12C = assay: Growth inhibition of human SN12C cells
M14 = assay: Growth inhibition of human M14 cells
SK-MEL-5 = assay: Growth inhibition of human SK-MEL-5 cells
MDA-MB-435 = assay: Growth inhibition of human MDA-MB-435 cells
ACHN = assay: Growth inhibition of human ACHN cells
NCI-H23 = assay: Growth inhibition of human NCI-H23 cells
MDA-MB-231 = assay: Growth inhibition of human MDA-MB-231 cells
SK-OV-3 = assay: Growth inhibition of human SKOV3 cells
SNB-19 = assay: Growth inhibition of human SNB19 cells
SF-295 = assay: Growth inhibition of human SF295 cells
SR = assay: Growth inhibition of human SR cells
MCF7 = assay: Growth inhibition of human MCF7 cells
TK-10 = assay: Growth inhibition of human TK10 cells
NCI/ADR-RES = assay: Growth inhibition of human NCI/ADR-RES cells
MOLT-4 = assay: Growth inhibition of human MOLT4 cells
COLO 205 = assay: Growth inhibition of human COLO205 cells
NCI-H460 = assay: Growth inhibition of human NCI-H460 cells
SF-539 = assay: Growth inhibition of human SF539 cells
MDA-MB-468 = assay: Growth inhibition of human MDA-MB-468 cells
786-0 = assay: Growth inhibition of human 786-0 cells
NCI-H522 = assay: Growth inhibition of human NCI-H522 cells
SK-MEL-2 = assay: Growth inhibition of human SK-MEL-2 cells
K562 = assay: Growth inhibition of human K562 cells
OVCAR-3 = assay: Growth inhibition of human OVCAR-3 cells
SK-MEL-28 = assay: Growth inhibition of human SK-MEL-28 cells
U-251 = assay: Growth inhibition of human U251 cells
[2] = read-out: pLC50 (the source's name) (converted)

## CC(C)=CCC/C(C)=C/CC/C(C)=C/Cc1c(O)cc(/C=C/c2ccc(O)cc2)cc1O [SCHWEINFURTHIN J]
BT-549
  GI50: 2.57 µM
  LC50: 30.9 µM
BT-549; read-out: pTGI (converted)
  TGI: 8.91 µM
CAKI-1
  GI50: 1.82 µM
CAKI-1; [2]
  CC50: 25.1 µM
CAKI-1; read-out: pTGI (converted)
  TGI: 5.89 µM
RPMI-8226
  GI50: 3.16 µM
  LC50: > 100 µM
RPMI-8226; read-out: pTGI (converted)
  TGI: 14.8 µM
HCT-116
  GI50: 1.86 µM
HCT-116; [2]
  CC50: 7.94 µM
HCT-116; read-out: pTGI (converted)
  TGI: 3.89 µM
A498
  GI50: 2.82 µM
  LC50: 45.7 µM
A498; read-out: pTGI (converted)
  TGI: 16.6 µM
CCRF-CEM
  GI50: 0.537 µM
  LC50: > 100 µM
CCRF-CEM; read-out: pTGI (converted)
  TGI: 17 µM
OVCAR-5
  GI50: 4.47 µM
  LC50: 44.7 µM
OVCAR-5; read-out: pTGI (converted)
  TGI: 15.8 µM
HCC 2998
  GI50: 2.69 µM
  LC50: 21.4 µM
HCC 2998; read-out: pTGI (converted)
  TGI: 6.31 µM
HCT-15
  GI50: 3.24 µM
  LC50 (50% lethal concentration): 64.6 µM
HCT-15; read-out: pTGI (converted)
  TGI: 16.6 µM
DU-145
  GI50: 3.72 µM
  LC50: 35.5 µM
DU-145; read-out: pTGI (converted)
  TGI: 12.9 µM
NCI-H226
  GI50: 3.63 µM
  LC50: 55 µM
NCI-H226; read-out: pTGI (converted)
  TGI: 14.8 µM
[1]
  GI50: 2.88 µM
  LC50: 89.1 µM
[1]; read-out: pTGI (converted)
  TGI: 12.3 µM
RXF 393
  GI50: 1.86 µM
RXF 393; [2]
  CC50: 6.61 µM
RXF 393; read-out: pTGI (converted)
  TGI: 3.55 µM
SW-620
  GI50: 3.16 µM
  LC50: 66.1 µM
SW-620; read-out: pTGI (converted)
  TGI: 12 µM
HT-29
  GI50: 3.98 µM
  LC50: 49 µM
HT-29; read-out: pTGI (converted)
  TGI: 15.8 µM
OVCAR-8
  GI50: 3.31 µM
  LC50: 43.7 µM
OVCAR-8; read-out: pTGI (converted)
  TGI: 11.5 µM
Malme-3M
  GI50: 2.95 µM
  LC50: 39.8 µM
Malme-3M; read-out: pTGI (converted)
  TGI: 8.91 µM
SN12C
  GI50: 1.95 µM
SN12C; [2]
  CC50: 9.77 µM
SN12C; read-out: pTGI (converted)
  TGI: 4.37 µM
M14
  GI50: 2 µM
M14; [2]
  CC50: 8.51 µM
M14; read-out: pTGI (converted)
  TGI: 4.17 µM
SK-MEL-5
  GI50: 1.7 µM
SK-MEL-5; [2]
  CC50: 5.75 µM
SK-MEL-5; read-out: pTGI (converted)
  TGI: 3.16 µM
MDA-MB-435
  GI50: 3.09 µM
MDA-MB-435; [2]
  CC50: 46.8 µM
MDA-MB-435; read-out: pTGI (converted)
  TGI: 10.5 µM
ACHN
  GI50: 3.8 µM
ACHN; [2]
  CC50: 38.9 µM
ACHN; read-out: pTGI (converted)
  TGI: 13.5 µM
NCI-H23
  GI50: 3.02 µM
  LC50: 36.3 µM
NCI-H23; read-out: pTGI (converted)
  TGI: 8.51 µM
MDA-MB-231
  GI50: 3.47 µM
  LC50: 44.7 µM
MDA-MB-231; read-out: pTGI (converted)
  TGI: 11.7 µM
SK-OV-3
  GI50: 7.24 µM
SK-OV-3; [2]
  CC50: 44.7 µM
SK-OV-3; read-out: pTGI (converted)
  TGI: 19.5 µM
SNB-19
  GI50: 6.76 µM
  LC50: 46.8 µM
SNB-19; read-out: pTGI (converted)
  TGI: 19.5 µM
SF-295
  GI50: 2.29 µM
  LC50: 45.7 µM
SF-295; read-out: pTGI (converted)
  TGI: 11.5 µM
SR
  GI50: 4.27 µM
  LC50: > 100 µM
SR; read-out: pTGI (converted)
  TGI: 29.5 µM
MCF7
  GI50: 2.57 µM
  LC50: 43.7 µM
MCF7; read-out: pTGI (converted)
  TGI: 11.2 µM
TK-10
  GI50: 2.63 µM
  LC50: 31.6 µM
TK-10; read-out: pTGI (converted)
  TGI: 9.33 µM
NCI/ADR-RES
  GI50: 3.16 µM
NCI/ADR-RES; [2]
  CC50: 38.9 µM
NCI/ADR-RES; read-out: pTGI (converted)
  TGI: 9.77 µM
MOLT-4
  GI50: 4.07 µM
  LC50: > 100 µM
MOLT-4; read-out: pTGI (converted)
  TGI: 25.1 µM
COLO 205
  GI50: 6.46 µM
  LC50: 44.7 µM
COLO 205; read-out: pTGI (converted)
  TGI: 18.6 µM
NCI-H460
  GI50: 3.24 µM
  LC50: 70.8 µM
NCI-H460; read-out: pTGI (converted)
  TGI: 12 µM
SF-539
  GI50: 2.51 µM
  LC50: 18.6 µM
SF-539; read-out: pTGI (converted)
  TGI: 5.62 µM
MDA-MB-468
  GI50: 2.69 µM
MDA-MB-468; [2]
  CC50: 36.3 µM
MDA-MB-468; read-out: pTGI (converted)
  TGI: 8.91 µM
786-0
  GI50: 1.95 µM
786-0; [2]
  CC50: 9.77 µM
786-0; read-out: pTGI (converted)
  TGI: 4.37 µM
NCI-H522
  GI50: 1.82 µM
  LC50: 13.2 µM
NCI-H522; read-out: pTGI (converted)
  TGI: 4.47 µM
SK-MEL-2
  GI50: 2.75 µM
  LC50: 31.6 µM
SK-MEL-2; read-out: pTGI (converted)
  TGI: 8.13 µM
K562
  GI50: 3.72 µM
  LC50: > 100 µM
K562; read-out: pTGI (converted)
  TGI: 22.9 µM
OVCAR-3
  GI50: 2 µM
  LC50 (concentration killing 50% of cells): 14.1 µM
OVCAR-3; read-out: pTGI (converted)
  TGI: 4.79 µM
SK-MEL-28
  GI50: 2.45 µM
SK-MEL-28; [2]
  CC50: 23.4 µM
SK-MEL-28; read-out: pTGI (converted)
  TGI: 6.46 µM
U-251
  GI50: 2.75 µM
  LC50: 30.9 µM
U-251; read-out: pTGI (converted)
  TGI: 8.32 µM
